Assay [1] relates to P-STAT5 in UKE-1 cells (Jak2V617F). In words: Western blot of phospho-STAT5 in UKE-1 cells. The format is cell-based. Conditions: 2.5 μM, 3 hrs. In general terms: In western blotting, separated proteins are transferred to a membrane and probed.
Assay [2] relates to γ2A-FRT-TI-Jak2V617F/STAT3-YFP cells. Kind of assay: Nuclei size by confocal imaging and Cell Profiler. The format is cell-based. Particulars: 24 hrs; Cell Profiler.
The test system of assay [3] is Jak2V617F in HEK-V617F-STAT-Rep. cells. Kind of assay: pSTAT-ZsGreen reporter gene assay. The assay is classed as cell-based. A general note: A reporter such as luciferase makes a cellular process visible.
In assay [4] the test system is P-STAT5 in BA/F3-EpoR-Jak2V617F cells. In words: Western blot of phospho-STAT5 in BA/F3-EpoR-Jak2V617F cells. Particulars: 2.5 μM, 3 hrs. The format is cell-based, murine.
The subject of assay [5] is Jak2V617F in γ2A-FRT-TI-Jak2V617F/STAT3-YFP cells. In words: STAT3-YFP translocation assay. The format is cell-based.
Assay [6] deals with HEL cells. Kind of assay: Cell proliferation assay. The format is cell-based, human. Conditions: for effect on proliferation of HEL cells: 0.3 or 1 μM, 72 hrs; for IC50: Homo sapiens, HEL, 72 h, read-out: IC50 values, Proliferation assay.
Assay [7] relates to Phospho-STAT5 (P-STAT5) levels in HEL cells (Jak2V617F). In words: Western blot of phospho-STAT5 in HEL cells. The format is cell-based, human. Particulars: for effect on phosphorylation of STAT5 (Western blot): 0.5, 1 or 5 μM, 3 hrs.
Assay [8] concerns Jak2V617F phosphorylation (P-Jak2) in HEL cells. Kind of assay: Western blot of phospho-Jak2 in HEL cells. The format is cell-based, human. Particulars: 0.5, 1 or 5 μM, 3 hrs.
The target of a further assay is Jak2 (Homo sapiens, UniProt O60674). In words: Jak2 in vitro kinase assay. Conditions: Caliper versus literature (Figure S5B). The format is biochemical.
Chain of Jak2 (O60674 whole entry): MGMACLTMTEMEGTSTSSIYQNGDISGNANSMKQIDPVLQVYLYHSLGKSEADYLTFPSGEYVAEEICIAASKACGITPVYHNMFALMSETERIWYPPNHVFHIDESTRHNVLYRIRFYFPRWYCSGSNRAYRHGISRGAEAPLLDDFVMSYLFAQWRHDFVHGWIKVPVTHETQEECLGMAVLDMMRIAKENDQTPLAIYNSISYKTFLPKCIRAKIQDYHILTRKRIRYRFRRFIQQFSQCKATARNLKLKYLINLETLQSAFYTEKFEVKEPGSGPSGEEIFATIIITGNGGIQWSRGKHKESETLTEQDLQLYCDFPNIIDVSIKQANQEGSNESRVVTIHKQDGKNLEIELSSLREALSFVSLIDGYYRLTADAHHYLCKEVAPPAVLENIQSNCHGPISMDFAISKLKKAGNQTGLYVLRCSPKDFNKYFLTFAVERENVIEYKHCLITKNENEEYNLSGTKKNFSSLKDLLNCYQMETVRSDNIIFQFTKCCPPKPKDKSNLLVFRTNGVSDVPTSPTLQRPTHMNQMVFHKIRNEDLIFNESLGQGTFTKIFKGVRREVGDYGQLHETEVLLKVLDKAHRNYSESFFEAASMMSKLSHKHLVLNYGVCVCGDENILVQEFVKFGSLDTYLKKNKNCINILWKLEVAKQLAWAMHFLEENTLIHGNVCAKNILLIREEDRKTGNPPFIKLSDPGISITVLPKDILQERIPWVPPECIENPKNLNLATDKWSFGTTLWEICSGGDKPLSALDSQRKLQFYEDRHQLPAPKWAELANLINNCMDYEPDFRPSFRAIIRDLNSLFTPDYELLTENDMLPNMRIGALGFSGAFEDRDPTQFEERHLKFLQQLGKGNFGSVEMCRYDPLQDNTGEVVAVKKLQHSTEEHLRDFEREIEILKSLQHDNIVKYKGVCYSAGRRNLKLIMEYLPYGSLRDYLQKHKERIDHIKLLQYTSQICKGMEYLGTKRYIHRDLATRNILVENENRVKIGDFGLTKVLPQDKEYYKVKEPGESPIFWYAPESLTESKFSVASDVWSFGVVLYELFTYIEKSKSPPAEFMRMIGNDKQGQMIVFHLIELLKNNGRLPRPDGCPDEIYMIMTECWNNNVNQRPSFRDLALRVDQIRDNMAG
In assay [9] the test system is 2C4, HCT-116 and K-562 cells. Kind of assay: Nuclei size in cell lines not expressing Jak2V617F. The assay is classed as cell-based. Particulars: 500 nM; 48 hrs.
In assay [10] the test system is CD34+ cells of Jak2V617F-positive MPN patients. In words: Colony forming cell. The format is cell-based, human. Conditions: single inhibitor; 12–16 days of culture.
The subject of assay [11] is phosphorylation of histone H3 in BA/F3-EpoR-Jak2V617F cells. Kind of assay: Quantitative Western blot of phospho-histone H3 in BA/F3-EpoR-Jak2V617F cells. The format is cell-based, murine. Particulars: BA/F3-EpoR-Jak2V617F cells blocked with Nocodazole; 0.25, 0.5 or 1 μM; 3 hrs.
The test system of assay [12] is phosphorylation of histone H3 in UKE-1 cells. Kind of assay: Quantitative Western blot of phospho-histone H3 in UKE-1 cells. The format is cell-based. Particulars: UKE-1 cells blocked with Nocodazole; 0.25, 0.5 or 1 μM; 3 hrs.
Assay [13] deals with phosphorylation of histone H3 (target of Aurora kinase B) in HEL cells. Kind of assay: Quantitative Western blot of phospho-histone H3 in HEL cells. The format is cell-based, human. Particulars: HEL cells blocked with Nocodazole; 0.25, 0.5 or 1 μM; 3 hrs.
Assay [14] has as its system HEL cells. In words: Cell size determination. The format is cell-based, human. Particulars: 600 nM CEP701, TG101209, VX680 or 100 nM AT9283; 24, 48 or 72 hrs.
Assay [15] has as its system HEL cells. In words: Cell cycle analysis. The format is cell-based, human. Particulars: 500 nM CEP701, VX680, TG101209 or 100 nM AT9283.

Where two headings read alike, the source gives them in different places.

Turning to `N#CCNC(=O)c1ccc(-c2ccnc(Nc3ccc(N4CCOCC4)cc3)n2)cc1` [CYT387], the “effect on phosphorylation of STAT5 (Western blot)” value in [1] is recorded as “efficiently decreased”; in assay [4] it was “efficiently decreased”; in assay [7] (HEL cells), “showed the same effects but were less efficient”. For the same compound, the “concentration at which nuclei size increases” value in assay [2] was “did not have this effect”. For the same compound, the IC50 in [3] (24 h, read-out: IC50 values, STAT-reporter gene assay) was 794 ± 7 nM; in [5] (read-out: IC50 values, STAT3-YFP translocation assay) it was 459 ± 126 nM; with HEL cells [6], 1180 ± 413 nM; in assay [7] (Homo sapiens, HEL, read-out: IC50 values, WB (P-STAT5), HEL cells, mean ± SD), roughly 600 nM; in assay [7] (read-out: IC50 values, WB (P-STAT5), HEL cells, mean ± SD) it was 633 ± 90 nM. The “effect on proliferation of HEL cells” value with HEL cells [6] is given as “showed the same effects but were less efficient”. Moreover, the “effect on phosphorylation of Jak2” value in assay [8] is reported as “increased phosphorylation of Jak2”. Moreover, the “divergence between own and published in vitro kinase assay IC50” value at Jak2 is given as “greater than 10 fold”.

For `Cc1cc(Nc2cc(N3CCN(C)CC3)nc(Sc3ccc(NC(=O)C4CC4)cc3)n2)[nH]n1` [VX680], the figures for the “effect on phosphorylation of STAT5 (Western blot)” value in assay [1], in [4] and in assay [7] (HEL cells) were “did not inhibit STAT5 phosphorylation”, “did not inhibit STAT5 phosphorylation” and “did not inhibit the phosphorylation of STAT5”, respectively. For the same compound, the “increase in nuclei size in cell lines not expressing Jak2V617F” value in assay [9] is listed as “this effect was also clearly visible”. For the same compound, the “IC50 values, STAT-reporter gene assay” value in assay [3] (HEK-V617F-STAT-Rep. cells, 24 hrs, mean ± SD) was “No inhibition”. The “effect on erythroid and myeloid colony growth” value in assay [10] is “reduced the numbers of myeloid colonies very efficiently but had less effect on erythroid colonies”. For the same compound, the “effect on histone H3 phosphorylation” value in assay [11] is reported as “decline of histone H3 phosphorylation”; in [12], “decline of histone H3 phosphorylation”; in [13] it was “Reduction in histone H3 phosphorylation”. Also, the “IC50 values, STAT3-YFP translocation assay” value in [5] (γ2A-FRT-TI-Jak2V617F/STAT3-YFP cells, mean ± SD) is “No inhibition”. In addition, the “effect on proliferation of HEL cells” value in the assay with HEL cells [6] is “very efficiently inhibited HEL cell growth”. The IC50 in the assay on HEL cells [6] is 158 ± 26 nM. The “IC50 values, WB (P-STAT5)” value in assay [7] (HEL cells, mean ± SD) is reported as “No inhibition”. Besides, in assay [8], the “effect on phosphorylation of Jak2” value is recorded as “not observed”. Further, in the assay on HEL cells [14], the “effect on HEL cell size” value is “increased in size”. The “effect on cell cycle profile” value in the assay with HEL cells [15] is given as “emergence of an 8n peak”.

For the origin of these results see publication PMC3822589 (Journal of Cellular and Molecular Medicine, 2013).
